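Dose response: 5 concentrations. Exposure: 48 h. Format: 96-well plates. Endpoint: linear interpolation; highest concentration if not reached. TGI: total growth inhibition.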
What was measured:
Assay in all cases: NCI anticancer screen, dose series, 48 h
[1] = test system: KM12 colon
[2] = test system: SF-295 CNS
[3] = test system: HCC-2998 colon
[4] = test system: CAKI-1 renal
[5] = test system: DU-145 prostate
[6] = test system: NCI-H522 lung
[7] = test system: OVCAR-5 ovarian
[8] = test system: SK-MEL-2 melanoma
[9] = test system: UACC-257 melanoma
[10] = test system: A498 renal
[11] = test system: PC-3 prostate
[12] = test system: UACC-62 melanoma
[13] = test system: SF-268 CNS
[14] = test system: EKVX NSCLC
[15] = test system: RPMI-8226 leukemia
[16] = test system: SK-MEL-5 melanoma
[17] = test system: MDA-MB-231 breast
[18] = test system: SK-OV-3 ovarian
[19] = test system: SK-MEL-28 melanoma
[20] = test system: SN12C renal
[21] = test system: MCF7 breast
[22] = test system: A549 NSCLC
[23] = test system: OVCAR-4 ovarian
[24] = test system: SW-620 colon
[25] = test system: HCT-15 colon
[26] = test system: HCT-116 colon
[27] = test system: HT29 colon
[28] = test system: TK-10 renal
[29] = test system: ACHN renal
[30] = test system: BT-549 breast
[31] = test system: NCI-H226 lung
[32] = test system: SNB-19 CNS
[33] = test system: MOLT-4 leukemia
[34] = test system: U251 CNS
[35] = test system: UO-31 renal
[36] = test system: SNB-75 CNS
[37] = test system: NCI-H460 lung
[38] = test system: MDA-MB-435
[39] = test system: MALME-3M melanoma
[40] = test system: HOP-62 NSCLC
[41] = test system: 786-0 renal
[42] = test system: NCI-H23 lung
[43] = test system: HOP-92 NSCLC
[44] = test system: NCI/ADR-RES ovarian
[45] = test system: IGROV1 ovarian
[46] = test system: M14 melanoma
[47] = test system: MDA-N
[48] = test system: COLO 205 colon
[49] = test system: K-562 leukemia
[50] = test system: HS 578T breast
[51] = test system: SR leukemia
[52] = test system: HL-60(TB) leukemia
[53] = test system: LOX IMVI melanoma
[54] = test system: T-47D breast
[55] = test system: OVCAR-3 ovarian
[56] = test system: CCRF-CEM leukemia
[57] = test system: OVCAR-8 ovarian
[58] = test system: SF-539 CNS
[59] = test system: RXF 393 renal

SMILES: Oc1ccc2ccccc2c1NCn1nc(CCCCCCCCc2nn(CNc3c(O)ccc4ccccc34)c(=S)o2)oc1=S
- TGI [1]: > 100 µM
- TGI [2]: > 100 µM
- TGI [3]: > 100 µM
- TGI [4]: > 100 µM
- TGI [5]: > 100 µM
- TGI [6]: > 100 µM
- TGI [7]: > 100 µM
- TGI [8]: > 100 µM
- TGI [9]: > 100 µM
- TGI [10]: > 100 µM
- TGI [11]: > 100 µM
- TGI [12]: > 100 µM
- TGI [13]: > 100 µM
- TGI [14]: > 100 µM
- TGI [15]: > 100 µM
- TGI [16]: > 100 µM
- TGI [17]: > 100 µM
- TGI [18]: > 100 µM
- TGI [19]: > 100 µM
- TGI [20]: > 100 µM
- TGI [21]: > 100 µM
- TGI [22]: > 100 µM
- TGI [23]: > 100 µM
- TGI [24]: > 100 µM
- TGI [25]: > 100 µM
- TGI [26]: 79.4 µM
- TGI [27]: > 100 µM
- TGI [28]: > 100 µM
- TGI [29]: > 100 µM
- TGI [30]: > 100 µM
- TGI [31]: > 100 µM
- TGI [32]: > 100 µM
- TGI [33]: > 100 µM
- TGI [34]: > 100 µM
- TGI [35]: > 100 µM
- TGI [36]: > 100 µM
- TGI [37]: > 100 µM
- TGI [38]: > 100 µM
- TGI [39]: > 100 µM
- TGI [40]: > 100 µM
- TGI [41]: > 100 µM
- TGI [42]: > 100 µM
- TGI [43]: > 100 µM
- TGI [44]: > 100 µM
- TGI [45]: > 100 µM
- TGI [46]: > 100 µM
- TGI [47]: > 100 µM
- TGI [48]: > 100 µM
- TGI [49]: > 100 µM

SMILES: CNc1cccc2c1C(C)C[C@]1(C)C(=O)Nc3ccccc3[C@H]21 (some centres undefined)
- TGI [1]: 87.1 µM
- TGI [2]: 34.2 µM
- TGI [3]: > 100 µM
- TGI [4]: 63.7 µM
- TGI [5]: > 100 µM
- TGI [6]: 89 µM
- TGI [7]: > 100 µM
- TGI [8]: 55.3 µM
- TGI [9]: 39.3 µM
- TGI [10]: 43.6 µM
- TGI [50]: 53.6 µM
- TGI [11]: 74.5 µM
- TGI [12]: > 100 µM
- TGI [13]: > 100 µM
- TGI [51]: 43.3 µM
- TGI [14]: > 100 µM
- TGI [15]: > 100 µM
- TGI [52]: > 100 µM
- TGI [16]: > 100 µM
- TGI [17]: 42.9 µM
- TGI [19]: 91.8 µM
- TGI [20]: 48.5 µM
- TGI [53]: 33.7 µM
- TGI [54]: > 100 µM
- TGI [21]: 47.4 µM
- TGI [22]: 38.6 µM
- TGI [23]: 35.9 µM
- TGI [24]: > 100 µM
- TGI [55]: 34.6 µM
- TGI [25]: > 100 µM
- TGI [56]: > 100 µM
- TGI [26]: 34.8 µM
- TGI [27]: 81.6 µM
- TGI [57]: 39.1 µM
- TGI [28]: 37.2 µM
- TGI [58]: > 100 µM
- TGI [29]: 50.8 µM
- TGI [31]: 61.4 µM
- TGI [32]: 54 µM
- TGI [33]: > 100 µM
- TGI [35]: 52.4 µM
- TGI [36]: 28.3 µM
- TGI [37]: 41.1 µM
- TGI [38]: 53.4 µM
- TGI [39]: 47.7 µM
- TGI [40]: 36.4 µM
- TGI [41]: 32.9 µM
- TGI [42]: > 100 µM
- TGI [44]: 45.4 µM
- TGI [45]: > 100 µM
- TGI [59]: 50 µM
- TGI [46]: 41.5 µM
- TGI [47]: 69.9 µM
- TGI [48]: > 100 µM
- TGI [49]: > 100 µM
